# Test system: hepatic lipid accumulation
# Experiment: Hepatic steatosis and lipidomic profiling of liver and quadriceps muscle
# Assay type: in vivo, mouse
# Settings: HFD-fed mice
# Procedure: Lipids were extracted from liver and quadriceps tissue using a modified MTBE method (Matyash et al, 2008; Abbott et al, 2013). Briefly, 10 mg/ml of tissue was homogenized in ice-cold 150 mM ammonium acetate using a bead homogenizer (1.4 mm ceramic) kept below 4° C. using liquid nitrogen vapor (Precellys 24 homogenizer with Cryolys cooling unit, Bertin Technologies, Montigny-le-Bretonneux, France). From this, 20 μl of homogenized tissues were added to glass vials containing MTBE and methanol (3:1 v/v, with 0.01% BHT), alongside 10 μl of an internal standard solution containing 10 μM each: phosphatidylcholine (PC) 17:0/17:0, phosphatidylethanolamine (PE) 17:0/17:0, phosphatidylserine (PS) 17:0/17:0, phosphatidylglycerol (PG) 17:0/17:0, lysophosphatidylcholine (LPC) 17:0, lysophosphatidylethanolamine (LPE) 14:0, ceramide (Cer) d18:1/17:0, dihydrosphingomyelin d18:0/12:0, diacylglycerol (DAG) 17:0/17:0, D5-triacylglycerol (TAG) 48:0, and cholesteryl ester (CE) 22:1. Samples were allowed to rotate at 4° C. overnight prior to the addition of 1 volume of ice-cold 150 mM ammonium acetate. Samples were vortexed thoroughly prior to centrifugation (2000×g, 5 min) to enable phase separation. […]
# Extracted lipids were analyzed by liquid chromatography-mass spectrometry (LC-MS) using a Dionex Ultimate 3000 LC pump and Q Exactive Plus mass spectrometer equipped with a heated electrospray ionization (HESI) source (Thermo Fisher Scientific). […] Data were acquired in full scan/data-dependent MS2 mode (full scan resolution 70,000 FWHM, max ion injection time 50 ms, scan range m/z 200-1500), with the 10 most abundant ions being subjected to collision-induced dissociation using an isolation window of 1.5 Da and a normalized stepped collision energy of 15/27 eV, with product ions detected at a resolution of 17,500. […]
# Lipids were analyzed using MS-DIAL (Tsugawa et al, 2015). Lipids were detected in both positive and negative ionization modes using a minimum peak height of 1×10^4 cps, a MS1 tolerance of 5 ppm and MS2 tolerance of 10 ppm, and a minimum identification score of 50%. […]
structure (smiles),measurement,setting,value
CCCCCCCCc1ccc([C@H]2CCN[C@@H]2CO)cc1.Cl [compound 893],Hepatic steatosis,120 mg/kg,eliminated hepatic steatosis
same,Liver triglyceride and ceramide levels,treated for 4 weeks,restored normal triglyceride and ceramide levels in the liver
same,Muscle ceramide levels,"treated for 4 weeks, quadriceps",ceramide levels trended lower in muscle

# From patent publication US20220409617A1, “Drug Formulations and Methods of Treatment for Metabolic Disorders” (The Regents of the University of California, priority 2019, published 2022)
